Laboratory results published in PubChem BioAssay (NCI).
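All cell lines were grown in 96-well plates and treated with compound for 48 hours. At the GI50, growth is halved. TGI: concentration producing complete growth inhibition.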

What was measured:
Test in all cases: NCI-60 cell line screen, 48 h
[1] = test system: 786-0 renal
[2] = test system: U251 CNS
[3] = test system: OVCAR-3 ovarian
[4] = test system: TK-10 renal
[5] = test system: UACC-62 melanoma
[6] = test system: LOX IMVI melanoma
[7] = test system: RPMI-8226 leukemia
[8] = test system: CCRF-CEM leukemia
[9] = test system: T-47D breast
[10] = test system: PC-3 prostate

| SMILES | TGI [1] | TGI [2] | TGI [3] | TGI [4] | TGI [5] | TGI [6] | TGI [7] | TGI [8] | GI50 [9] | TGI [9] | GI50 [1] | GI50 [2] | GI50 [3] | GI50 [4] | GI50 [10] | TGI [10] | GI50 [5] | GI50 [6] | GI50 [7] | GI50 [8] |
| --- | --- | --- | --- | --- | --- | --- | --- | --- | --- | --- | --- | --- | --- | --- | --- | --- | --- | --- | --- | --- |
| CC/C(=N/O)C(C)C(=O)CCC(=O)Nc1ccc(Cl)cc1 (stereo not given) | > 100 µM | > 100 µM | > 100 µM | > 100 µM | > 100 µM | > 100 µM | > 100 µM | > 100 µM |  |  |  |  |  |  |  |  |  |  |  |  |
| C=CCC(O)c1cc(OC)ccc1OC (stereo not given) | > 100 µM | > 100 µM | > 100 µM | > 100 µM | > 100 µM | > 100 µM | > 100 µM | > 100 µM |  |  |  |  |  |  |  |  |  |  |  |  |
| COC(=O)c1ccc(N/C=C(/C#N)c2ccsc2)cc1 | 23.3 µM | 20.3 µM | 23.1 µM | 30.7 µM | 60.5 µM |  | > 100 µM | > 100 µM |  |  |  |  |  |  |  |  |  |  |  |  |
| CNC(=O)NCCCCC(NC(=O)OCc1ccccc1)C(=O)OCc1ccccc1 (stereo not given) | 32.2 µM | 54.4 µM | 32.1 µM | 52.6 µM | 47.9 µM | 31.3 µM | 51.4 µM | 38.5 µM |  |  |  |  |  |  |  |  |  |  |  |  |
| CC1=C(C(=O)NCc2ccccc2)C(c2ccc(N(C)C)cc2)C(C(=O)NCc2ccccc2)=C(C)N1 | > 100 µM | > 100 µM | > 100 µM | > 100 µM | > 100 µM |  | > 100 µM | > 100 µM |  |  |  |  |  |  |  |  |  |  |  |  |
| NC1=CC(=O)C(=O)c2ccccc21 | 79.8 µM | 46.4 µM | 29.9 µM | 47.5 µM | 15.7 µM | 39.7 µM | 53.2 µM |  | 14.2 µM | 46.2 µM | 25 µM | 19.3 µM | 12.4 µM | 16.7 µM | 17.9 µM | 70.5 µM | 3.33 µM | 15.9 µM | 11.2 µM |  |
| Cc1ccc(Nn2c(SCC(=O)Nc3nc(-c4ccccc4)cs3)nc(C)c2C)cc1 | > 100 µM | > 100 µM | > 100 µM | > 100 µM | > 100 µM | 19.3 µM |  |  | 1.85 µM | 10.4 µM | 4.41 µM | 4.5 µM | 8.24 µM | 18.9 µM |  |  | 3.15 µM | 3.32 µM |  |  |
| NC(CCSCCF)C(=O)O (stereo not given) | > 100 µM | > 100 µM | > 100 µM | > 100 µM | > 100 µM | > 100 µM | > 100 µM | > 100 µM |  |  |  |  |  |  |  |  |  |  |  |  |
| C=CC(=O)OCCCS(=O)(=O)[O-].C=CC(=O)OCCCS(=O)(=O)[O-].NC1CCCCC1N.[Pt+4] | > 25 µM | > 25 µM | > 25 µM | > 25 µM | > 25 µM | > 25 µM | > 25 µM | > 25 µM |  |  | > 25 µM | > 25 µM | > 25 µM | > 25 µM |  |  | > 25 µM | > 25 µM | > 25 µM | > 25 µM |
| COc1ccc(C2C(C(=O)O)=C(CO)Oc3cc4c(cc32)OCO4)c(OC)c1 (stereo not given) | > 100 µM | > 100 µM | > 100 µM | > 100 µM | > 100 µM | > 100 µM | > 100 µM | > 100 µM |  |  |  |  |  |  |  |  |  |  |  |  |
| N#Cc1cc2c(=S)[nH]c(=S)[nH]c2nc1SCc1ccccc1 | > 100 µM | > 100 µM | > 100 µM | 65 µM | 54.6 µM | 43.4 µM | > 100 µM | > 100 µM |  |  | 28.1 µM | 29.5 µM | 65.5 µM | 12.3 µM | 23.6 µM | > 100 µM | 17 µM | 17.3 µM | 26.4 µM | 33.1 µM |
| O=C(CC(=O)c1cccc2ccccc12)C(=O)Nc1nccs1 | > 100 µM | > 100 µM | > 100 µM | > 100 µM | > 100 µM | > 100 µM | > 100 µM | > 100 µM |  |  |  |  |  |  |  |  |  |  |  |  |
| CCOC(=O)C1=C(Nc2cccc3ccccc23)OCC1=O | > 100 µM | > 100 µM | > 100 µM |  | > 100 µM |  | > 100 µM | > 100 µM |  |  |  |  |  |  |  |  |  |  |  |  |
| C#CCOCn1cnc2c(N)ncnc21 | > 100 µM | > 100 µM | > 100 µM | > 100 µM | > 100 µM | > 100 µM | > 100 µM | > 100 µM |  |  |  |  |  |  |  |  |  |  |  |  |
| O=c1c2cc(Br)ccc2n(C2OC(CO)C(O)C(O)C2O)c(=S)n1-c1ccccc1 (stereo not given) | > 100 µM | > 100 µM | > 100 µM | > 100 µM |  | > 100 µM | > 100 µM |  |  |  |  |  |  |  |  |  |  |  |  |  |
| CC1=CC[C@@H]2C(=O)C=CC=C[C@H]12.[C-]#[O+].[C-]#[O+].[C-]#[O+].[Fe] | > 100 µM | > 100 µM | > 100 µM | > 100 µM | > 100 µM | > 100 µM | > 100 µM | > 100 µM |  |  | > 100 µM | > 100 µM | > 100 µM | > 100 µM |  |  | > 100 µM | > 100 µM | > 100 µM | > 100 µM |
| CCSc1nnc(-c2ccc3ccccc3c2O)n1-c1ccccc1 | > 100 µM |  | > 100 µM | > 100 µM |  |  |  |  |  |  | > 100 µM |  | > 100 µM |  |  |  |  |  |  |  |
| Cc1c(-c2cc(-c3ccccc3)n[nH]c2=O)c2ccccc2n1C | > 100 µM | > 100 µM | > 100 µM | > 100 µM | > 100 µM |  | > 100 µM | > 100 µM |  |  |  |  |  |  |  |  |  |  |  |  |
| CC(C)=CC1(C)/C(=N\O)C(C)(CC(C)C)C(=O)N1O (stereo not given) | > 100 µM | > 100 µM | > 100 µM | > 100 µM | > 100 µM | > 100 µM | > 100 µM | > 100 µM |  |  |  |  |  |  |  |  |  |  |  |  |
| CCCCCCCCCCCc1cc(=O)c2c(O)cccc2o1 | > 100 µM | > 100 µM | > 100 µM | > 100 µM | > 100 µM | > 100 µM | > 100 µM | 83.7 µM |  |  |  |  |  |  |  |  |  |  |  |  |
| COc1ccccc1NC(=O)C1=C(C)NC(C)=C(C(=O)Nc2ccccc2OC)C1c1ccc(C2C(C(=O)Nc3ccccc3OC)=C(C)NC(C)=C2C(=O)Nc2ccccc2OC)cc1 | 4.22 µM | 7.01 µM | 6.08 µM | 16.2 µM | 3.26 µM | 2.67 µM | 8 µM | 5.71 µM |  |  |  |  |  |  |  |  |  |  |  |  |
